Laboratory results as given in patent US4297359A, “Anti-ulcer compositions containing certain pyridyl oxime ethers” (ACF Chemiefarma NV, priority 1978, dated 1981).
Where two headings read alike, the source gives them in different places.

Tests used:
androgen = settings: J. Pharm. Sci. 58, 138-141 (1969); cited from earlier work
[1] = tested on: indomethacin induced gastric damage; assay: Anti-ulcer activity: inhibition of indomethacin induced gastric damage in the rat (method of Elegbe); type: in vivo; settings: po, 5 h; for inhibition in vivo at 100 mg/kg: read-out: % Inhibition (of gastric damage); for inhibition in vivo at 50 mg/kg: 50 mg/kg (footnote *) orally
Procedure: Rats were starved overnight, given indomethacin subcutaneously (15 mg/kg) and sacrificed 5 hours later. Stomachs were inflated with 0.9% saline, cut along the greater curvature, pinned out and scored for gastric damage by the following system:
Score 1-3 according to the degree of erythema and slight haemorrhage.
Score 4-6 according to the degree of mucosal erosion.
Score 7-9 according to the depth of gastric damage.
Compound or vehicle was administered orally 30 minutes prior to, and at 2 hours after dosing with indomethacin. Mean values per treatment were obtained using the above scoring system and the Mann Witney test applied for significance between such values.

gastric secretion = assay: Effects on Gastric Secretion in the Pyloric Ligated Rat (method of Shay et al.); type: in vivo; settings: intraduodenal, 100 mg/kg i.d., 3 hours
Excerpt: 1. Effects on Gastric Secretion in the Pyloric Ligated Rat
The method as described by Shay et al. (Gastroenterol. 26, 906 (1945)) was used. After overnight starvation the pylorus of a rat was ligated under halothane aenesthesia and the compound under test or vehicle only administered intraduodenally and the rats allowed to recover. They were sacrificed three hours later and the gastric juice removed. After measurement of the volume of secretion, its hydrogen ion concentration, [H^+ ], was determined by titration with 0.5 n NaOH to pH 7. Groups of 4-6 animals were used for each treatment and the inhibitory effect of the compound was ascertained by comparison of the mean values obtained with those from a simultaneously set up control group of animals which received vehicle only. Students `t` test was applied for significance between groups. The mean values for % inhibition obtained for a number of experiments are shown in the following Table 1, the dosage being 100 mg/kg i.d.

acetylcholine = settings: Farmaco. Ed. Sci. 19, 668-702 (1964); cited from earlier work
[2] = 100 mg/kg orally, 30 minutes prior to and 2 hours after indomethacin (15 mg/kg s.c.)
[3] = read-out: % Inhibition, Volume (of gastric secretion)
[4] = read-out: % Inhibition, [H^+ ] (hydrogen ion concentration of gastric juice)
[5] = 30 minutes prior to and 2 hours after indomethacin (15 mg/kg s.c.)

| SMILES | inhibition in vivo at 100 mg/kg [1, 2] | inhibition in vivo at 100 mg/kg (gastric secretion; [3]) | inhibition in vivo at 100 mg/kg (gastric secretion; [4]) | further results |
| --- | --- | --- | --- | --- |
| CN(C)CCON=C(Cc1ccccn1)c1ccccc1 [phenyl 2-picolinyl ketone, O-dimethylaminoethyl oxime] |  |  |  | effective dose relative to toxic dose (androgen): the effective dose was very close to the toxic dose |
| CON=C(c1ccccn1)c1ccccn1 [Compound 17, di-2-pyridinyl ketone, O-methyl oxime] | 76% | 83% | 14% |  |
| C[N+](C)(C)CCON=C(c1ccccc1)c1ccccn1.[I-] [phenyl 2-pyridinyl ketone, O-dimethylaminoethyl oxime methiodide] |  |  |  | acetylcholine antagonistic activity (acetylcholine): showed acetylcholine antagonistic activity |
| CN(C)CCCON=C(c1ccccn1)c1ccco1 [Compound 31, 2-furyl 2-pyridinyl ketone, O-3-N,N-dimethylaminopropyl oxime] | 92% | 70% | 30% |  |
| CON=C(c1ccccc1)c1ccncc1 [Compound 1, Phenyl 4-pyridinyl ketone, O-methyl oxime] |  | 82% | 41% | inhibition in vivo at 50 mg/kg [1, 5]: 86% |
| CO/N=C(\c1ccccc1)c1cccnc1 [Compound 3, phenyl 3-pyridinyl ketone, O-methyl oxime] |  | 87% | 50% | inhibition in vivo at 50 mg/kg [1, 5]: 82% |
| CO/N=C(\c1ccncc1)c1ccc(Cl)cc1 [Compound 9, 4-chlorophenyl 4-pyridinyl ketone, O-methyl oxime] | 80% |  |  |  |
| CO/N=C(\c1ccccc1)c1ccncc1 [Compound 4, phenyl 4-pyridinyl ketone, O-methyl oxime] | 77% | 82% | 50% |  |
| CN(C)CCON=C(c1ccccc1)c1ccncc1 [Compound 28, phenyl 4-pyridinyl ketone, O-2-N,N-dimethylaminoethyl oxime] | 92% | 83% | 92% |  |
| CON=C(c1ccsc1)c1ccccn1 [Compound 12, 2-pyridinyl 3-thienyl ketone, O-methyl oxime] | 100% | 78% | 20% |  |
| CN(C)CCCON=C(c1ccccc1)c1cccnc1 [Compound 27, phenyl 3-pyridinyl ketone, O-3-N,N-dimethylaminopropyl oxime] |  | 85% |  |  |
| C#CCON=C(c1ccccc1)c1ccncc1 [Compound 23, phenyl 4-pyridinyl ketone, O-propargyl oxime] |  | 81% |  |  |
| CON=C(c1ccncc1)c1cccs1 [Compound 14, 4-pyridinyl 2-thienyl ketone, O-methyl oxime] | 77% |  |  |  |
| CN(C)CCCON=C(c1ccccc1)c1ccccn1 [Compound 25, phenyl 2-pyridinyl ketone, O-3-N,N-dimethylaminopropyl oxime] | 77% | 91% | 65% |  |
| CN(C)CCON=C(c1ccccc1)c1ccccn1 [Compound 24, phenyl 2-pyridinyl ketone, O-2-N,N-dimethylaminoethyl oxime] | 100% | 81% | 36% |  |
| C=CCON=C(c1ccccc1)c1ccncc1 [Compound 22, phenyl 4-pyridinyl ketone, O-allyl oxime] | 79% | 76% |  |  |

| SMILES | inhibition in vivo at 100 mg/kg [1, 2] | inhibition in vivo at 100 mg/kg (gastric secretion; [3]) | inhibition in vivo at 100 mg/kg (gastric secretion; [4]) | further results |
| --- | --- | --- | --- | --- |
| CO/N=C(\c1ccccc1)c1ccccn1 [Compound 2, phenyl 2-pyridinyl ketone, O-methyl oxime] |  | 76% | 33% | inhibition in vivo at 50 mg/kg [1, 5]: 79% |
| CON=C(c1ccncc1)c1ccc(CO)cc1 [Compound 19, 4-hydroxymethylphenyl 4-pyridinyl ketone, O-methyl oxime] | 71% | 66% | 35% |  |
| CN(C)CCCON=C(c1ccccn1)c1cccs1 [Compound 30, 2-pyridinyl 2-thienyl ketone, O-3-N,N-dimethylaminopropyl oxime] | 77% | 78% | 64% |  |
| CON=C(c1ccccn1)c1cccs1 [Compound 11, 2-pyridinyl 2-thienyl ketone, O-methyl oxime] | 78% | 84% | 36% |  |
| CO/N=C(/c1ccccc1)c1cc[n+]([O-])cc1 [Compound 32, Phenyl 4-pyridinyl ketone, O-methyl oxime, N-oxide (Z-isomer)] | 64% | 84% | 32% |  |
| CO/N=C(\c1ccncc1)c1ccc(F)cc1 [Compound 8, 4-fluorophenyl 4-pyridinyl ketone, O-methyl oxime] | 100% | 76% | 11% |  |
| COc1ccc(C(=NOCCN(C)C)c2cccs2)cc1 [4-methoxyphenyl 2-thienyl ketone, O-dimethylaminoethyl oxime] |  |  |  | anti-androgenic activity (androgen): showed anti-androgenic activity; effective dose relative to toxic dose (androgen): the effective dose was very close to the toxic dose |
| CON=C(c1ccncc1)c1ccc(C)cc1 [Compound 6, 4-methylphenyl 4-pyridinyl ketone, O-methyl oxime] | 80% | 81% | 89% |  |
| CO/N=C(\c1ccncc1)c1ccc(OC)cc1 [Compound 7, 4-methoxyphenyl 4-pyridinyl ketone, O-methyl oxime] | 88% |  |  |  |
| N#CCON=C(c1ccccc1)c1ccncc1 [Compound 20, Phenyl 4-pyridinyl ketone, O-cyanomethyl oxime] |  |  |  | inhibition in vivo at 100 mg/kg [1]: 96% |
| CON=C(Cc1ccccn1)c1ccccc1 [Compound 16, phenyl 2-pyridinylmethyl ketone, O-methyl oxime] | 72% | 46% | 25% |  |
| CON=C(c1ccncc1)c1ccc(Cl)c(Cl)c1 [Compound 10, 3,4-dichlorophenyl 4-pyridinyl ketone, O-methyl oxime] |  |  | 49% |  |
| CN(C)CCON=C(c1ccccc1)c1cccnc1 [Compound 26, phenyl 3-pyridinyl ketone, O-2-N,N-dimethylaminoethyl oxime] |  | 84% |  |  |
| CON=C(c1ccncc1)c1ccc(C(F)(F)F)cc1 [Compound 18, 4-pyridinyl 4-trifluoromethylphenyl ketone, O-methyl oxime] |  | 59% |  |  |
| CCON=C(c1ccccc1)c1ccncc1 [Compound 21, phenyl 4-pyridinyl ketone, O-ethyl oxime] |  | 77% | 24% | inhibition in vivo at 50 mg/kg [1, 5]: 100% |
| CN(C)CCCON=C(c1ccccc1)c1ccncc1 [Compound 29, phenyl 4-pyridinyl ketone, O-3-N,N-dimethylaminopropyl oxime] | 65% | 72% | 45% |  |
